Where a name gives a salt, the structure may show the parent alone.
What was measured:
MMP 13 = MMP 13 (Homo sapiens, UniProt P45452); test: MMP 13 inhibition (manual); assay type: biochemical; settings: read-out: MMP 13 IC 50
MMP 1 = target: T1, MMP 1 (Homo sapiens, UniProt P03956); test: In vitro collagenase assay (human recombinant fibroblast collagenase); assay type: biochemical; settings: read-out: MMP 1 IC 50
T1 construct: human recombinant fibroblast collagenase (truncated, mw=18,828, WAR, Radnor)
T1 sequence (P03956 100-269 limits assumed): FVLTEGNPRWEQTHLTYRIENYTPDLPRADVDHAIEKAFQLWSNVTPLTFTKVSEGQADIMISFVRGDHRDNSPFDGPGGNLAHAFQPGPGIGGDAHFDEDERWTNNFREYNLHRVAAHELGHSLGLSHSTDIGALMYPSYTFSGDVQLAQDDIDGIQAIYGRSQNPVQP
Description: The assay is based on the cleavage of a peptide substrate ((Dnp-Pro-Cha-Gly-Cys(iNe)-His-Ala-Lys(NMa)-NH2), Peptide International, Inc.) by collag,enase releasing the fluorescent NMa group which is quantitated on the fluorometer. Dnp quenches the NiIa fluorescence in the intact substrate. […] Substrate is dissolved in methanol and stored frozen in 1 mM aliquots. Collagenase is stored frozen in buffer in 25 µM aliquots. For the assay, substrate is dissolved in HCBC buffer to a final concentration of 10 μM and collagenase to a final concentration of 5 nM. Compounds are dissolved in methanol, DMSO, or HCBC. The methanol and DMSO are diluted in HCBC to <1.0%. Compounds are added to the 96 well plate containing enzyme and the reaction is started by the addition of substrate.
The slope of the line is calculated and represents the reaction rate.
The mean (x±sem) of the control rate is calculated and compared for statistical significance (p<0.05) with drug-treated rates using Dunnett's multiple comparison test.

TACE = target: T2, TACE (Homo sapiens, UniProt P78536); test: Procedure for measuring TACE inhibition; assay type: biochemical; settings: for IC50: read-out: TACE IC 50; for inhibition at 10 µM: read-out: TACE % inhibition at 10 micromolar (*)
T2 construct: purchased Immunex
T2 sequence (P78536 215-824): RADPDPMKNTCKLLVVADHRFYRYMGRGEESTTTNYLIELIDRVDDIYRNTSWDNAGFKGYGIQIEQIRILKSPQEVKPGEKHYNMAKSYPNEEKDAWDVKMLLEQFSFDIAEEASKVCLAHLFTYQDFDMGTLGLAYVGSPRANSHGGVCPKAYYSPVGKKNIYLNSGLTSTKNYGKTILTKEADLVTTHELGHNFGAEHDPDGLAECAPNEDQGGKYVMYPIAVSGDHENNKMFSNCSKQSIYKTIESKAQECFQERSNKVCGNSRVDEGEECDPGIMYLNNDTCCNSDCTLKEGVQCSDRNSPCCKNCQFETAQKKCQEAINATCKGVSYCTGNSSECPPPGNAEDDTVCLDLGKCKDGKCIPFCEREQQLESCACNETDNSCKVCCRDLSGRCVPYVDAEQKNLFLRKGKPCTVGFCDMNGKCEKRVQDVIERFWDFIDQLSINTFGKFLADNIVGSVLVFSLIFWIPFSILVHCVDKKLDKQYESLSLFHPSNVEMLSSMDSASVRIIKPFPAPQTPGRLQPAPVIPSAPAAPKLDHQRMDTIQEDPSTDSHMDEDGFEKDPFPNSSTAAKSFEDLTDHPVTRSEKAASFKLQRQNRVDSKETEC
Description: Using 96-well black microtiter plates, each well receives a solution composed of 10 μL TACE (Inmunex, final concentration 1 μg/mL), 70 μL Tris buffer, pH 7.4 containing 10% glycerol (final concentration 10 mM), and 10 μL of test compound solution in DMSO ([…], DMSO concentration <1%) and incubated for 10 minutes at room temperature. The reaction is initiated by addition of a fluorescent peptidyl substrate (final concentration 100 μM to each well and then shaking on a shaker for 5 sec.
The reaction is read (excitation 340 nm, emission 420 nm) for 10 min. and the increase in fluorescence over time is plotted as a linear line. The slope of the line is calculated and represents the reaction rate.
The mean (xtsem) of the control rate is calculated and compared for statistical significance (p<0.05) with drug-treated rates using Dunnett's multiple comparison test.

MMP 9 = target: T3, MMP 9 (Homo sapiens, UniProt P14780); test: In vitro gelatinase assay (human neutrophil gelatinase B); assay type: biochemical; settings: read-out: MMP 9 IC 50
T3 construct: from tissue; host or cells: human neutrophils
T3 sequence (P14780 94-707): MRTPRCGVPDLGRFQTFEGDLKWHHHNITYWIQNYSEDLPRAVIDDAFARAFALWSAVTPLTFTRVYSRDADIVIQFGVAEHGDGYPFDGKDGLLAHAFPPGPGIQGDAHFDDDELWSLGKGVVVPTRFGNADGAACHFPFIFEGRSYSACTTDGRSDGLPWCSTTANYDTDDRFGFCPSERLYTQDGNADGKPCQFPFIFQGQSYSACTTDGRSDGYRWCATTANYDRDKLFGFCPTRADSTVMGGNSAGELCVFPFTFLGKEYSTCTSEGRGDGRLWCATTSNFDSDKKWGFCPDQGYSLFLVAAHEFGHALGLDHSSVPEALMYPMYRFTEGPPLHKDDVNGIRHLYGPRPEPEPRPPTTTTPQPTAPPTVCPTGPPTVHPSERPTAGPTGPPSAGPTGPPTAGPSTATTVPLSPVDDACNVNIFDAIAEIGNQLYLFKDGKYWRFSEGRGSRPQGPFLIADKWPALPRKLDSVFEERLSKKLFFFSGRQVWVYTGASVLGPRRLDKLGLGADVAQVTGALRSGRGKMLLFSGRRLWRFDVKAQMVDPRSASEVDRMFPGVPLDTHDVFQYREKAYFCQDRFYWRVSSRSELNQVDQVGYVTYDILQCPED
Description: The assay is based on the cleavage of the thiopeptide substrate ((Ac-Pro-Leu-Gly(2 mercapto-4 methyl-pentanoyl)-Leu-Gly-OEt), Bachem Bioscience) by the enzyme, gelatinase, releasing the substrate product which reacts calorimetrically with DTNB ((5,5′-dithio-bis(2-nitro-benzoic acid)). The enzyme activity is measured by the rate of the color increase.
The thiopeptide substrate is made up fresh as a 20 mM stock in 100% DMSO and the DTNB is dissolved in 100% DMSO as a 100 mM stock and stored in dark at room temperature. Both the substrate and DTNB are diluted together to 1 mM with substrate buffer (50 mM HEPES pH 7.5, 5 mM CaCl2) before use. The stock of human neutrophil gelatinase B is diluted with assay buffer (50 mnM HEPES pH 7.5, 5 mM CaCl2, 0.02% Brij) to a final concentration of 0.15 mnM.
The increase in OD405 is plotted and the slope of the line is calculated which represents the reaction rate.

## CCCCOc1ccc(S(=O)(=O)C2(C(=O)NO)CCN(Cc3ccc(OCCN4CCCCC4)cc3)CC2)cc1 (as salt: HCl) [Example 242, 4-(4-Butoxy-benzenesulfonyl)-1-[4-(2-piperidin-1-yl-ethoxy)-benzyl]-piperidine-4-carboxylic acid hydroxyamide]
other
  melting point: 155 °C

## CCCCOc1ccc(S(=O)(=O)C2(C(=O)NO)CCN(Cc3cccc(OCCN4CCOCC4)c3)CC2)cc1 (as salt: HCl) [Example 243, 4(4-Butoxy-benzenesulfonyl)-1-[3-(2-morpholinyl-1-ylthoxy)-benzyl]-piperidine-4-carboxylic acid hydroxyamide]
other
  melting point: 123 °C

## CN1CCC(C(=O)NO)(S(=O)(=O)c2ccc(Oc3ccc(Cl)cc3)cc2)CC1 (as salt: HCl) [Example 249, 4-[4-(4-chloro-phenoxy)-benzenesulfonyl]1-methyl-piperidine-4-carboxylic acid hydroxyamide]
other
  melting point: 52 °C

## CCN1CCC(C(=O)NO)(S(=O)(=O)c2ccc(Oc3ccc(Cl)cc3)cc2)CC1 (as salt: HCl) [Example 250, 4-[4-(4-chloro-phenoxy)-benzenesulfonyl]1-ethyl-piperidine-4-carboxylic acid hydroxyamide]
other
  melting point: 158 °C

## CCCCOc1ccc(S(=O)(=O)C2(C(=O)NO)CCN(Cc3cccc(OC)c3)CC2)cc1 (as salt: HCl) [Example 260, 4-(4-butoxy-benzenesulfonyl)-1-(3-methoxy-benzyl)-piperidine-4-carboxylic acid hydroxyamide]
other
  melting point: 137 °C

## COc1ccc(S(=O)(=O)C2(C(=O)NO)CCN(Cc3ccc(-c4ccccn4)cc3)CC2)cc1 (as salt: HCl) [Example 262, 4-(4-methoxy-benzenesulfonyl)-1-(4-pyridin-2-yl-benzyl)-piperidine-4-carboxylic acid hydroxyamide]
other
  melting point: 214 °C

## CCCCOc1ccc(S(=O)(=O)C2(C(=O)NO)CCN(Cc3ccc(Cl)c(Cl)c3)CC2)cc1 (as salt: HCl) [Example 263, 1-(3,4-Dichlorobenzyl)-4-(4-butoxy-benzenesulfonyl)-piperidine-4-carboxylic acid hydroxyamide]
other
  melting point: 256.8 °C

## CN1CCC(C(=O)NO)(S(=O)(=O)c2ccc(OCc3ccc(Cl)cc3)cc2)CC1 (as salt: HCl) [Example 264, [4-(4-Chloro-benzyloxy)benzenesulfonyl]-1-methylpiperidine-4-carboxylic acid hydroxamide]
other
  melting point: 117.8 °C

## Cc1ccc(CN2CCC(C(=O)NO)(S(=O)(=O)c3ccc(OCc4ccc(Cl)cc4)cc3)CC2)cc1 (as salt: HCl) [Example 266, [4-(4-Chloro-benzyloxy)-benzenesulfonyl]-1-(4-methylbenzyl)-piperidine-4-carboxylic acid hydroxamide]
other
  melting point: 172 °C

## CCCCOc1ccc(S(=O)(=O)C2(C(=O)NO)CCN(Cc3ccc(C)cc3)CC2)cc1 (as salt: HCl) [Example 267, 4-(4-Butoxy-benzenesulfonyl)-1-(4-methylbenzyl)-piperidine-4-carboxylic acid hydroxamide]
other
  melting point: 137 °C

## CCCCOc1ccc(S(=O)(=O)C2(C(=O)NO)CCN(Cc3ccc(C#N)cc3)CC2)cc1 (as salt: HCl) [Example 268, 4-(4-Butoxy-benzenesulfonyl)-1-(4-cyano-benzyl)-piperidine-4-hydroxamide carboxylic acid hydroxamide]
other
  melting point: 241.6 °C

## CCCCOc1ccc(S(=O)(=O)C2(C(=O)NO)CCN(Cc3ccncc3)CC2)cc1 (as salt: HCl) [Example 269, 4-(4-Butoxy-benzenesulfonyl)-1-pyridin-4-ylmethyl-piperidine-4-carboxylic acid hydroxamide]
other
  melting point: 118 °C

## CCCCCC(C(=O)NO)[S+]([O-])c1ccc(OC)cc1 (single isomer, unassigned) [Example 81b, 2S*-(4-methoxy-phenyl-R*-sulfinyl)-heptanoic acid hydroxyamide]
MMP 13
  IC50: 0.0157 µM
MMP 1
  IC50: 3.76 µM
TACE
  IC50: 0.228 µM
MMP 9
  IC50: 0.154 µM

## CCN1CCC(C(=O)NO)(S(=O)(=O)c2ccc(Oc3ccc(Cl)cc3)cc2)CC1 [Example 250, 4-[4-(4-chloro-phenoxy)-benzenesulfonyl]1-ethyl-piperidine-4-carboxylic acid hydroxyamide]
MMP 13
  IC50: 0.0008 µM
MMP 1
  IC50: 1.72 µM
TACE
  IC50: 0.413 µM
MMP 9
  IC50: 0.0016 µM

## CCCCN1CCC(C(=O)NO)(S(=O)(=O)c2ccc(Oc3ccc(Cl)cc3)cc2)CC1 [Example 251]
MMP 13
  IC50: 0.0009 µM
MMP 1
  IC50: 1.07 µM
TACE
  IC50: 0.301 µM
MMP 9
  IC50: 0.0008 µM

## CCCCN1CCC(C(=O)NO)(S(=O)(=O)c2ccc(OCCC(C)C)cc2)CC1 [Example 256, 1 -Butyl-4-[4-(3-methyl-butoxy)-benzenesulfonyl]-piperidine-4-carboxylic acid hydroxyamide]
MMP 13
  IC50: 0.0029 µM
MMP 1
  IC50: 10 µM
TACE
  inhibition at 10 µM: 43%
MMP 9
  IC50: 0.0072 µM

## CCC(CC)COc1ccc(S(=O)(=O)C2(C(=O)NO)CCN(Cc3ccccc3)CC2)cc1 [Example 259, 1-Benzyl4-[4-(2-ethyl-butoxy)-benzenesulfonyl]-piperidine-4-carboxylic acid hydroxyamide]
MMP 13
  IC50: 0.0053 µM
MMP 1
  IC50: 3.16 µM
TACE
  inhibition at 10 µM: 39%
MMP 9
  IC50: 0.0143 µM

## CCCCOc1ccc(S(=O)(=O)C2(C(=O)NO)CCN(Cc3ccc(Cl)c(Cl)c3)CC2)cc1 [Example 263, 1-(3,4-Dichlorobenzyl)-4-(4-butoxy-benzenesulfonyl)-piperidine-4-carboxylic acid hydroxyamide]
MMP 13
  IC50: 0.0052 µM
MMP 1
  IC50: 3.67 µM
TACE
  inhibition at 10 µM: 57.7%
MMP 9
  IC50: 0.0203 µM

## CN1CCC(C(=O)NO)(S(=O)(=O)c2ccc(OCc3ccc(Cl)cc3)cc2)CC1 [Example 264, [4-(4-Chloro-benzyloxy)benzenesulfonyl]-1-methylpiperidine-4-carboxylic acid hydroxamide]
MMP 13
  IC50: 0.0031 µM
MMP 1
  IC50: 4.29 µM
TACE
  IC50: 0.182 µM
MMP 9
  IC50: 0.0029 µM

## CCCCOc1ccc(S(=O)(=O)C2(C(=O)NO)CCN(Cc3cccc(Oc4ccccc4)c3)CC2)cc1 [Example 265, 4-(4-Butoxy-benzenesulfonyl)-1-(3-phenoxy-benzyl)-piperidine-4-carboxylic acid hydroxamide]
MMP 13
  IC50: 0.0078 µM
MMP 1
  IC50: 1.94 µM
TACE
  IC50: 1.04 µM
MMP 9
  IC50: 0.0093 µM

## CCCCOc1ccc(S(=O)(=O)C2(C(=O)NO)CCN(Cc3ccc(C)cc3)CC2)cc1 [Example 267, 4-(4-Butoxy-benzenesulfonyl)-1-(4-methylbenzyl)-piperidine-4-carboxylic acid hydroxamide]
MMP 13
  IC50: 0.0023 µM
MMP 1
  IC50: 3.62 µM
TACE
  IC50: 0.508 µM
MMP 9
  IC50: 0.0054 µM

## CCCCOc1ccc(S(=O)(=O)C2(C(=O)NO)CCN(Cc3ccc(C#N)cc3)CC2)cc1 [Example 268, 4-(4-Butoxy-benzenesulfonyl)-1-(4-cyano-benzyl)-piperidine-4-hydroxamide carboxylic acid hydroxamide]
MMP 13
  IC50: 0.0011 µM
MMP 1
  IC50: 2.29 µM
TACE
  IC50: 0.278 µM
MMP 9
  IC50: 0.0028 µM

## CCCCOc1ccc(S(=O)(=O)C2(C(=O)NO)CCN(Cc3ccncc3)CC2)cc1 [Example 269, 4-(4-Butoxy-benzenesulfonyl)-1-pyridin-4-ylmethyl-piperidine-4-carboxylic acid hydroxamide]
MMP 13
  IC50: 0.0014 µM
MMP 1
  IC50: 2.07 µM
TACE
  IC50: 0.296 µM
MMP 9
  IC50: 0.0022 µM

Reference: patent US6441023B1 (American Home Products Corporation, priority 1997, dated 2002)
